Results reported in patent US5413991A (Ajinomoto Co., Inc., priority 1991, dated 1995).

What was measured:
[1] = target: T1, chitinase from baker's yeast (S cerevisiae) (Saccharomyces cerevisiae, UniProt P29029); experiment: Assay for chitinase inhibitory activity, chitinase from baker's yeast; format: biochemical; details: 0.1M citrate buffer pH 3.0, substrate 4MBTC
T1 construct: was shaken at 30° C. for 2 hours at 120 spm to extract the enzyme; host or cells: commercial baker's yeast, digitonin extract
T1 sequence (P29029 21-562): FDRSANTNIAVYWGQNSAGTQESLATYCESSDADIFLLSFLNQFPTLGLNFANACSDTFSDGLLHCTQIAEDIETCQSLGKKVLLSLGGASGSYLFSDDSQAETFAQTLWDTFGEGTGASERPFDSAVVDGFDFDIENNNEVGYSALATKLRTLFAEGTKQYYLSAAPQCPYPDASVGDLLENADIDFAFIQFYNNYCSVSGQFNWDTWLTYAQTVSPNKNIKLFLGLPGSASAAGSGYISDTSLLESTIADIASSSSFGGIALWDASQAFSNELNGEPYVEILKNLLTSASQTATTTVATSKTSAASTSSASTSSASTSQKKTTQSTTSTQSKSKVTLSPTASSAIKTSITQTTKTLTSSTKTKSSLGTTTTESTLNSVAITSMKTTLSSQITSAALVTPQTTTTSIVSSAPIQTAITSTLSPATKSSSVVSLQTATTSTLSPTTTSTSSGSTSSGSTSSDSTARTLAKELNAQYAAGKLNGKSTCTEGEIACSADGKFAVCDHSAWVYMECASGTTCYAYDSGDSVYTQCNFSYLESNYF
Procedure: The chitinase from baker's yeast (S cerevisiae) was prepared by the following method. Firstly, 400 g of baker's yeast (manufactured by Kanegafuchi Chemical Industry Co., Ltd.) was suspended in buffer for enzyme extraction (0.1% digitonin: manufactured by Wako Pure Chemical Industry Co., Ltd.), 0.1% β-mercaptoethanol and 2 liters of 25 mM MES (manufactured by Nakarai Chemical Co., Ltd.), and was shaken at 30° C. for 2 hours at 120 spm to extract the enzyme. The extract was centrifuged at 12,000 g for 10 minutes and the supernatant was recovered. The supernatant was concentrated to about one-fifth of the volume by ultrafiltration (UP-20). After 800 ml of sodium citrate buffer (obtained by adding 0.15M aqueous sodium citrate to 0.15M aqueous citric acid, and adjusting the pH to 3.0) was added to the concentrate, the precipitates were removed by centrifugation (0° C., 12,000 g, 10 minutes). The supernatant was again concentrated by ultrafiltration (UP-20) to about 80 ml. The resulting concentrate was used as the chitinase from baker's yeast in the assay described in procedure (ii) below.
(§1) In a 20 ml vial bottle, 50 μl of the chitinase solution from Candida albicans prepared as described above,s 50 μl of 100 μg/ml aqueous 4-methylumbelliferyl β-D-N,N',N"-triacetyl-chitotrioside (hereinafterabbreviated as 4MBTC, SIGMA Co.), 75 μl of 50 mM bis-Tris buffer (pH 6.5) and 25 μl of 0.1N acetic acid were added and mixed. The reaction was carried out at 37° C. for 30 minutes. As a blank, the reaction was carried out in an identical manner, substituting 50 mM bis-Tris buffer (pH 6.5) for the enzyme solution. After the reaction, sufficient 0.5M glycine-sodium hydroxide buffer (pH 10.4) was added to make the total volume 5 ml. Then, the fluorescent intensity was determined with a fluorophotometer (manufactured by Hitachi Ltd., MPF-4). The excited wavelength was 350 nm, and the fluorescent wavelength was 400 nm. Chitinase activity was determined using the difference in the fluorescent intensity between the read-out data from the sample containing the enzyme and the blank read-out data.
(§2) In determining the inhibitory activity of AJI9463A, AJI9463B, AJI9463C, and the partially hydrolyzed disaccharides thereof, each compound was dissolved in 0.1N acetic acid, and 25 μl of the compound solution was substituted for the 25 μl of 0.1N acetic acid in the reaction system described above. Further, in determining the inhibitory activity against the chitinases of baker's yeast and Trichoderma sp., the assay was performed by changing the buffer in the reaction system described above from 50 mM bis-Tris buffer (pH 6.5) to 0.1M citrate buffer (pH 3.0) and MclLvanine buffer (pH 5.2), respectively.

[2] = system: chitinase from Candida albicans; experiment: Assay for chitinase inhibitory activity, chitinase from Candida albicans (4MBTC fluorescence); format: biochemical, Candida albicans ATCC 10231; details: for Chitinase Inhibitory Activity IC50, C. albicans: bis-Tris buffer pH 6.5, 37° C., 30 minutes, substrate 4MBTC; for Inhibitory activity against chitinase derived from Candida albicans, in words: comparison in words
Procedure: The chitinase from Candida albicans (C. albicans) was prepared by the following method. Firstly, a Sabouraud medium (pH 5.6) composed of 4 g of glucose, 1 g of polypeptone and 100 ml of water was prepared and placed in an Erlenmeyer flask of 500 ml volume. After sterilization at 120° C. for 20 minutes, one platinum loop of slant culture cells of C. albicans ATCC 10231 was inoculated into the medium, and then shake cultured at 37° C. for 2 days to obtain a primary seed mother liquor.
In a second procedure, 1 liter of Sabouraud medium having the same composition as above was prepared. Separately, 100 ml of the medium was added to each of ten 500 ml Erlenmeyer flasks, then the flasks and their contents were sterilized at 120° C. for 20 minutes. Thereafter, 2 ml of the primary seed mother liquor described above was added to each flask. The flask was shaken at 37° C. for 2 days to obtain a secondary seed mother liquor.
In a third procedure, 50 liters of Sabouraud medium having the same composition as described above was prepared and added to a culture tank of 100 liter volume. The tank and its contents were sterilized at 120° C. for 30 minutes. In the tank, 1 liter of the secondary seed mother liquor described above was added. Shake culturing was then conducted at 37° C. for 15 hours. At this stage, the stirring velocity was 140 rpm and the aerial rate was 10 l/min. The resulting culture broth was centrifuged by a sharpless centrifuging machine to recover the cells. The wet weight of the thus obtained cells was 250 g.
The cells were suspended in 800 ml of a buffer for cell homogenization (50 mM bis-Tris, 0.25M saccharose, 1 mM disodium ethylenediaminetetraacetate, pH 6.5). The suspension was twice passed through a Dyno-mill disintegrator (beads: MK-2GX, 0.25-0.5 mm) to disrupt the cells, and the supernatant was recovered. The supernatant was centrifuged at 9000 g for 30 minutes, then further super-centrifuged at 152,000 g for an hour. The supernatant thereof was recovered, and was concentrated to about one-fifth of the volume by ultrafiltration (Toyo Ultrafilter UP-20), having an excluding limiting molecular weight of 20,000. The concentrate was used as the crude chitinase solution from Candida albicans in the assay described in procedure (ii) below.
as §1, §2

[3] = target: chitinase from Trichoderma sp. (Chitinase T-1); experiment: Assay for chitinase inhibitory activity, chitinase from Trichoderma sp.; format: biochemical; details: McIlvaine buffer pH 5.2, substrate 4MBTC
Procedure: The chitinase from Trichoderma sp. was provided for use in the assay described in procedure (ii) below by diluting commercially available Chitinase T-1 (manufactured by Asahi Industry Co., Ltd.) with MclIvanine buffer (obtained by adding 0.2M aqueous disodium hydrogen phosphate to 0.1M aqueous citric acid and adjusting the pH to 5.2) to a concentration of 50 μg/ml.
as §1, §2

[4] = system: Candida albicans (ATCC 10231); experiment: Effects on growth of Candida albicans; format: cell-based; details: 50 μg/ml, Sabouraud dextrose medium, 37° C., 6 and 9 hours after inoculation, microscopic observation
Procedure: Samples of Candida albicans (ATCC 10231) were precultured in Sabouraud dextrose medium. Each of seven large test tubes containing 5 ml of Sabouraud dextrose medium were charged, respectively, with 50 μg/ml of AJI9463A, AJI9463B, AJI9463C, and the partially hydrolyzed disaccharides thereof and medium containing no active inhibitory component. The preculture was then inoculated into the media in the test tubes. The test tubes were capped with a cotton stopper, and incubated at 37° C. at 120 spm. The change in the subsequent culture with respect to time was observed. Observations were made microscopically, sampling the medium at the time when the culture started, and 6 and 9 hours thereafter.

[5] = system: mouse ascites breast cancer cells FM3A; experiment: Cytotoxicity, mouse ascites breast cancer cells FM3A; format: cell-based; details: 1 mg/ml, 37° C., 4 days, microscopic observation
Procedure: Six separate samples of mouse ascites breast cancer cells FM3A, inoculated in Dulbeccol's modified MEM medium supplemented with 10% calf fetal serum (1×10^5 counts/ml) were prepared, and AJI9463A, AJI9463B, AJI9463C and each of the partially hydrolyzed disaccharides thereof were respectively added thereto, resulting in a concentration of 1 mg/ml. Stationary culture was conducted at 37° C. for 4 days. The cultured mouse ascites breast cancer cells FM3A were observed microscopically.

[6] = system: human leukemia cells K562; experiment: Cytotoxicity, human leukemia cells K562; format: cell-based; details: 1 mg/ml, 37° C., 4 days, microscopic observation
Procedure: Six separate samples of human leukemia cells K562, inoculated in RPMI 1640 medium supplemented with 10% calf fetal serum (1×10^5 counts/ml) were prepared, and AJI9463A, AJI9463B, AJI9463C and each of the partially hydrolyzed disaccharides thereof were respectively added thereto, resulting in a concentration of 1 mg/ml. Stationary culture was conducted at 37° C. for 4 days. The human leukemia cell K562 culture was observed microscopically.

[7] = system: silkworm-derived chitinase; details: background statement; cited from earlier work
[8] = system: fungi-derived chitinase; details: background statement; cited from earlier work
[9] = system: endo-type chitinase of insects; details: background statement; cited from earlier work

SMILES	IC50 [1] [µM]	Chitinase Inhibitory Activity IC50, C. albicans [2] [µg/mL]	Chitinase Inhibitory Activity IC50, Trichoderma sp. [3] [µg/mL]	Fungal growth of Candida albicans [4]	Inhibitory activity against chitinase derived from Candida albicans, in words [2]	Growth inhibition of mouse ascites breast cancer cells FM3A (cytotoxicity) [5]	Growth inhibition of human leukemia cells K562 (cytotoxicity) [6]	Inhibition of silkworm-derived chitinase [7]	Inhibitory activity against fungi-derived chitinase [8]	Inhibition of endo-type chitinase of insects [9]
CC(=O)N[C@H]1[C@H](OC2C(O)C3N=C(N(C)C)OC3C2CO)O[C@H](CO)[C@@H](O)[C@@H]1O (some centres unmarked)	> 477	1.3	> 50.0							
CNC1=NC2C(O)C(O[C@@H]3O[C@H](CO)[C@@H](O)[C@@H](O)[C@H]3NC(C)=O)C(CO)C2O1 (some centres unmarked)	> 493	0.9	> 50.0							
CNC1=NC2C(O)C(O[C@@H]3O[C@H](CO)[C@@H](O)[C@H](O)[C@H]3NC(C)=O)C(CO)C2O1 (some centres unmarked)	> 493	1.0	> 50.0							
CNC1=NC2C(O)C(O[C@@H]3O[C@H](CO)[C@@H](O[C@@H]4O[C@H](COC)[C@@H](O)[C@@H](O)[C@H]4NC(C)=O)[C@@H](O)[C@H]3NC(C)=O)C(CO)C2O1 (some centres unmarked) [AJI9463A]	0.642	0.6	1.3	somewhat inhibited	most potent inhibitory activity of any known compound	No growth inhibition was noted at all	No growth inhibition was noted at all			
CNC1=NC2C(O)C(O[C@@H]3O[C@H](CO)[C@@H](O[C@@H]4O[C@H](COC)[C@@H](O)[C@@H](O)[C@H]4NC(C)=O)[C@H](O)[C@H]3NC(C)=O)C(CO)C2O1 (some centres unmarked) [AJI9463B]	0.803	0.8	1.6	somewhat inhibited	superior to that of allosamidin and methylallosamidin	No growth inhibition was noted at all	No growth inhibition was noted at all			
COC[C@H]1O[C@@H](O[C@H]2[C@H](O)[C@@H](NC(C)=O)[C@H](OC3C(O)C4N=C(N(C)C)OC4C3CO)O[C@@H]2CO)[C@H](NC(C)=O)[C@H](O)[C@@H]1O (some centres unmarked) [AJI9463C]	49.2	3.4	0.8	somewhat inhibited	superior to that of allosamidin and methylallosamidin	No growth inhibition was noted at all	No growth inhibition was noted at all			
CC(=O)N[C@H]1[C@H](O[C@H]2[C@@H](O)[C@@H](NC(C)=O)[C@H](O[C@H]3[C@H](O)[C@H]4N=C(N(C)C)O[C@H]4[C@@H]3CO)O[C@@H]2CO)O[C@H](CO)[C@@H](O)[C@H]1O [Allosamidin, allosamidin]		6.2	0.8					inhibitors	weak inhibitory activity	strongly inhibit
